Literature values as cited in patent publication US20080153927A1, “ALPHA-2B RECEPTOR AGONIST AND RELAXANT COMPOSITIONS FOR TREATING GASTROINTESTINAL MOTILITY DISORDERS” (Allergan, Inc., priority 2006, published 2008).

Which results are given for `CN(C)[C@@H](CCOc1cccc2ccccc12)c1ccccc1` [Dapoxetine]?
initial half-life (in vivo): 1.2 h; time to maximum serum concentration (serum): about 1 hour
